Reference: patent US8455525B2, “Selective androgen receptor modulators” (Radius Health, Inc., priority 2008, dated 2013)
Structures can show the parent of a compound that is named as a salt. Where two headings read alike, the source gives them in different places.

Biological target: T1, androgen receptor (AR) (Rattus norvegicus, UniProt P15207)
T1 construct: purchased Invitrogen, Madison, Wis
T1 sequence (P15207 651-902 limits assumed): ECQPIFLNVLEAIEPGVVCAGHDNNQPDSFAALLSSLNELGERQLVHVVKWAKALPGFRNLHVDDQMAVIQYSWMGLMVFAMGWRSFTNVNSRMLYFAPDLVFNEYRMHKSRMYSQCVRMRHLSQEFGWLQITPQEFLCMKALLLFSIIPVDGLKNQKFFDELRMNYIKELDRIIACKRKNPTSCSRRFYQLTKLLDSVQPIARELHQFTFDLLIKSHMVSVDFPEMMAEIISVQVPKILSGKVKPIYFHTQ
Assay: androgen receptor binding assay (fluorescence polarization, Fluormone AL Green competition)
Procedure: The assay was performed as specified by the manufacturer (Invitrogen, Madison, Wis.). Briefly, 1 μl of 10 mM compound was added to 500 μl of AR screening buffer in a 1.5 ml eppendorf tube to make a 2×10^−5M stock. 10-fold serial dilutions of the test compounds were prepared ranging in concentration from 10^−5M to 10^−12M. Each dilution was added in triplicate to a black 384-microtiter plate. The test compounds will be diluted 2-fold in the final reaction. 2×AR-Fluormone™ complex was prepared with 2 nM Flourmone AL Green™ and 30 nM AR. 25 μl of 2× complex was aliquoted to each reaction well, such that the final reaction volume was 50 μl per well. Plate was sealed with a foil cover and incubated in the dark at room temperature for 4 h. Polarization values for each well were measured. The polarization values were plotted against the concentration of the test compound. […] As a control, a competition curve for R1881 (methyltrienolone) was performed for each assay. Curve Fitting was performed using GraphPad Prism® software from GraphPad™ Software Inc. Binding data are reported as a single determination if the experiment was run once only and as the average of experiments if the binding experiment was performed two or more times with that compound.
Where multiple data points have been taken, the value reported is the average of the multiple determinations.

[1] = single determination or average of multiple determinations, read-out: Binding IC50 (AR-Binding Affinity)

Row | SMILES | IC50 | IC50 [1]
1 | Cc1c(N[C@H](CCO)c2nnc(-c3ccc(C#N)cc3)o2)ccc(C#N)c1Cl [Example 79, (R)-2-chloro-4-(1-(5-(4-cyanophenyl)-1,3,4-oxadiazol-2-yl)-3-hydroxypropylamino)-3-methylbenzonitrile] | 2 nM | 
2 | Cc1c(N[C@@H](c2nnc(-c3ccc(Cl)c(Cl)c3)o2)[C@@H](C)O)ccc(C#N)c1Cl [Example 32, 2-Chloro-4-((1R,2R)-1-(5-(3,4-dichlorophenyl)-1,3,4-oxadiazol-2-yl)-2-hydroxypropylamino)-3-methylbenzonitrile] | 2 nM | 
3 | Cc1c(N[C@@H](c2nnc(-c3ccc(C#N)cc3)o2)[C@@H](C)O)ccc(C#N)c1Cl [Example 23, 2-chloro-4-((1R,2R)-1-(5-(4-cyanophenyl)-1,3,4-oxadiazol-2-yl)-2-hydroxypropylamino)-3-methylbenzonitrile] | 0.7 nM | 
4 | Cc1c(N[C@@H](c2nnc(-c3ccc(Cl)c(Cl)c3)o2)[C@H](C)O)ccc(C#N)c1Cl [Example 55, 2-Chloro-4-((1R,2S)-1-(5-(3,4-dichlorophenyl)-1,3,4-oxadiazol-2-yl)-2-hydroxypropylamino)-3-methylbenzonitrile] | 11 nM | 
5 | Cc1c(N[C@@H](c2nnc(-c3ccc(Cl)cc3)o2)[C@H](C)O)ccc(C#N)c1Cl [Example 4, 2-chloro-4-((1R,2S)-1-(5-(4-chlorophenyl)-1,3,4-oxadiazol-2-yl)-2-hydroxypropylamino)-3-methylbenzonitrile] | 11 nM | 
6 | Cc1c(N[C@@H](c2nc(-c3ccccc3)no2)[C@@H](C)O)ccc(C#N)c1Cl [Example 18, 2-chloro-4-((1R,2R)-2-hydroxy-1-(3-phenyl-1,2,4-oxadiazol-5-yl)propylamino)-3-methylbenzonitrile] | 60 nM | 
7 | Cc1c(N[C@@H](c2nnc(-c3ccc(I)cc3)o2)[C@H](C)O)ccc(C#N)c1Cl [Example 57, 2-Chloro-4-((1R,2S)-2-hydroxy-1-(5-(4-iodophenyl)-1,3,4-oxadiazol-2-yl)propylamino)-3-methylbenzonitrile] | 11 nM | 
8 | Cc1c(N[C@@H](c2nnc(-c3ccc(C#N)cc3)o2)[C@H](C)O)ccc(C#N)c1Cl [Example 22, 2-chloro-4-((1R,2S)-1-(5-(4-cyanophenyl)-1,3,4-oxadiazol-2-yl)-2-hydroxypropylamino)-3-methylbenzonitrile] | 2 nM | 
9 | Cc1c(N[C@@H](c2nnc(-c3ccc(C#N)cc3)o2)[C@H](C)O)ccc(C#N)c1C(F)(F)F [Example 42, 4-((1R,2S)-1-(5-(4-Cyanophenyl)-1,3,4-oxadiazol-2-yl)-2-hydroxypropylamino)-3-methyl-2-(trifluoromethyl)benzonitrile] | 9 nM | 
10 | Cc1c(N[C@@H](c2nnc(-c3ccc(O)c(F)c3)o2)[C@H](C)O)ccc(C#N)c1Cl [Example 29, 2-chloro-4-((1R,2S)-1-(5-(3-fluoro-4-hydroxyphenyl)-1,3,4-oxadiazol-2-yl)-2-hydroxypropylamino)-3-methylbenzonitrile] | 0.03 nM | 
11 | C[C@@H](O)[C@@H](Nc1ccc(C#N)c(C(F)(F)F)c1)c1nnc(-c2ccc(C#N)cc2)o1 [Example 44, 4-((1R,2R)-1-(5-(4-Cyanophenyl)-1,3,4-oxadiazol-2-yl)-2-hydroxypropylamino)-2-(trifluoro-methyl)benzonitrile] | 5 nM | 
12 | Cc1c(N[C@@H](c2nnc(-c3ccc(OS(=O)(=O)O)cc3)o2)[C@H](C)O)ccc(C#N)c1Cl [Example 72, Sodium 4-(5-((1R,2S)-1-(3-chloro-4-cyano-2-methylphenylamino)-2-hydroxypropyl)-1,3,4-oxadiazol-2-yl)phenyl sulfate] | 780 nM | 
13 | Cc1c(N[C@@H](c2nnc(-c3ccc(Cl)cc3)o2)C(C)(C)O)ccc(C#N)c1Cl [Example 15, (R)-2-chloro-4-(1-(5-(4-chlorophenyl)-1,3,4-oxadiazol-2-yl)-2-hydroxy-2-methylpropylamino)-3-methylbenzonitrile] | 0.5 nM | 
14 | Cc1c(N[C@@H](c2nnc(-c3ccc(F)cc3F)o2)[C@@H](C)O)ccc(C#N)c1Cl [Example 35, 2-Chloro-4-((1R,2R)-1-(5-(2,4-difluorophenyl)-1,3,4-oxadiazol-2-yl)-2-hydroxypropylamino)-3-methylbenzonitrile] | 0.2 nM | 
15 | C[C@@H](O)[C@@H](Nc1ccc(C#N)c2sccc12)c1nnc(-c2ccc(F)cc2)o1 [Example 64, 4-((1R,2R)-1-(5-(4-fluorophenyl)-1,3,4-oxadiazol-2-yl)-2-hydroxypropylamino)benzo[b]thiophene-7-carbonitrile] | 1 nM | 
16 | Cc1c(N[C@@H](c2nnc(-c3ccc(O)cc3)o2)[C@H](C)O)ccc(C#N)c1Cl [Example 8, 2-chloro-4-((1R,2S)-2-hydroxy-1-(5-(4-hydroxyphenyl)-1,3,4-oxadiazol-2-yl)propylamino)-3-methylbenzonitrile] | 15 nM | 
17 | CCc1c(N[C@@H](c2nnc(-c3ccc(C#N)cc3)o2)[C@H](C)O)ccc(C#N)c1Cl [Example 47, 2-Chloro-4-((1R,2S)-1-(5-(4-cyanophenyl)-1,3,4-oxadiazol-2-yl)-2-hydroxypropylamino)-3-ethylbenzonitrile] | 1 nM | 
18 | Cc1c(N[C@@H](c2nnc(-c3ccccc3)o2)C(C)(C)O)ccc(C#N)c1Cl [Example 14, (R)-2-chloro-4-(2-hydroxy-2-methyl-1-(5-phenyl-1,3,4-oxadiazol-2-yl)propylamino)-3-methylbenzonitrile] |  | 17 nM
19 | C[C@@H](O)[C@@H](Nc1ccc(C#N)c2ccccc12)c1nnc(-c2ccccc2)o1 [Example 52, 4-((1R,2R)-2-Hydroxy-1-(5-phenyl-1,3,4-oxadiazol-2-yl)propylamino)-1-naphthonitrile] | 9 nM | 
20 | Cc1c(N[C@@H](c2nnc(-c3ccccc3)s2)[C@H](C)O)ccc(C#N)c1Cl [Example 27, 2-chloro-4-((1R,2S)-2-hydroxy-1-(5-phenyl-1,3,4-thiadiazol-2-yl)propylamino)-3-methylbenzonitrile] | 10 nM | 
21 | Cc1c(N[C@@H](c2nnc(-c3ccc(O)c(Cl)c3)o2)[C@@H](C)O)ccc(C#N)c1Cl [Example 30, 2-Chloro-4-((1R,2R)-1-(5-(3-chloro-4-hydroxyphenyl)-1,3,4-oxadiazol-2-yl)-2-hydroxypropylamino)-3-methylbenzonitrile] | 0.3 nM | 
22 | Cc1c(N[C@@H](c2nnc(-c3cccc(O)c3)o2)[C@H](C)O)ccc(C#N)c1Cl [Example 7, 2-chloro-4-((1R,2S)-2-hydroxy-1-(5-(3-hydroxyphenyl)-1,3,4-oxadiazol-2-yl)propylamino)-3-methylbenzonitrile] | 0.4 nM | 
23 | Cc1c(N[C@@H](c2nnc(-c3cccc(O)c3)o2)[C@@H](C)O)ccc(C#N)c1Cl [Example 9, 2-chloro-4-((1R,2R)-2-hydroxy-1-(5-(3-hydroxyphenyl)-1,3,4-oxadiazol-2-yl)propylamino)-3-methylbenzonitrile] | 10 nM | 
24 | Cc1c(N[C@@H](c2nnc(-c3ccc(NC(=O)c4ccccc4)cc3)o2)[C@@H](C)O)ccc(C#N)c1Cl [Example 69, N-(4-(5-((1R,2R)-1-(3-Chloro-4-cyano-2-methylphenylamino)-2-hydroxypropyl)-1,3,4-oxadiazol-2-yl)phenyl)benzamide] | > 1000 nM | 
25 | CC(=O)Nc1ccc(-c2nnc([C@H](Nc3ccc(C#N)c(Cl)c3C)[C@@H](C)O)o2)cc1 [Example 70, N-(4-(5-((1R,2R)-1-(3-Chloro-4-cyano-2-methylphenylamino)-2-hydroxypropyl)-1,3,4-oxadiazol-2-yl)phenyl)acetamide] | 4 nM | 
26 | Cc1c(N[C@@H](c2nnc(-c3ccc(F)cc3)o2)[C@@H](C)O)ccc(C#N)c1Cl [Example 19, 2-chloro-4-((1R,2R)-1-(5-(4-fluorophenyl)-1,3,4-oxadiazol-2-yl)-2-hydroxypropylamino)-3-methylbenzonitrile] | 19 nM | 
27 | Cc1c(N[C@@H](c2nnc(-c3ccc(O)cc3)o2)[C@@H](C)O)ccc(C#N)c1Cl [Example 10, 2-chloro-4-((1R,2R)-2-hydroxy-1-(5-(4-hydroxyphenyl)-1,3,4-oxadiazol-2-yl)propylamino)-3-methylbenzonitrile] | 15 nM | 
28 | C[C@@H](O)[C@@H](Nc1ccc(C#N)c2ccccc12)c1nnc(-c2ccc(C#N)cc2)o1 [Example 51, 4-((1R,2R)-1-(5-(4-Cyanophenyl)-1,3,4-oxadiazol-2-yl)-2-hydroxypropylamino)-1-naphthonitrile] |  | 600 nM
29 | C[C@H](O)[C@@H](Nc1ccc(C#N)c(Cl)c1)c1nnc(-c2ccc(S(C)(=O)=O)cc2)o1 [Example 48, 2-Chloro-4-((1R,2S)-2-hydroxy-1-(5-(4-(methylsulfonyl)phenyl)-1,3,4-oxadiazol-2-yl)propylamino)benzonitrile] | > 1000 nM | 
30 | C[C@H](O)[C@@H](Nc1ccc(C#N)c(Cl)c1Cl)c1nnc(-c2ccccc2)o1 [Example 33, 2,3-dichloro-4-((1R,2S)-2-hydroxy-1-(5-phenyl-1,3,4-oxadiazol-2-yl)propylamino)benzonitrile] | 15 nM | 
